This note sets out measurements from patent US20020169101A1, “Treatment of sexual dysfunction” (priority 1999, published 2002).

One data set concerns the target T1, human NMB receptor (BB1) (Homo sapiens, UniProt P28336).
T1 construct: expressed in transfected cells; membranes prepared from the cells
The experiment in a line: BB1 binding assay ([125I][Tyr4]bombesin displacement, CHO-K1 membranes). The note with it: Table 1, human NMB receptor binding affinity; Ki from IC50 by Cheng-Prusoff; read-out: NMB Ki. In a few lines: (§1)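 Membranes from CHO-K1 cells stably expressing human NMB (BB1) or GRP (BB2) receptors, in 50 mM Tris-HCl pH 7.4 with BSA and protease inhibitors, incubated with [125I][Tyr4]bombesin (<0.1 nM) for 60 min (BB1) or 90 min (BB2). Nonspecific binding defined with 1 μM bombesin; filtration and gamma counting; IC50 converted to Ki by Cheng-Prusoff.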

The test system of data set [1] is sexual behaviour of sexually dysfunctional male rats. The experiment in a line: Sexual behaviour of fluoxetine-induced sexually dysfunctional male rats. Type of data set: in vivo, rat. The protocol: Sprague Dawley male rats (Charles River, UK) were kept, 4 rats per cage, in a reversed lighting regime (12:12 hours, lights off at 5.00 h), with free access to food and water. The rats were pre-selected by being presented with a receptive female at 4 days intervals, i.e. every third day (having 2 clear days between presentations) until completing 6-7 trials of baseline determination. The animals showing consistently vigorous behaviour (ejaculatory latencies <300s) were chosen for further experiments. Animals were treated for 3 consecutive days with either vehicle (water) or fluoxetine (20 mg/kg, i.p., in a 2 ml/kg dosing volume). On the fourth day, the animals treated with water received vehicle (veh+veh) and the animals treated with fluoxetine received one of the three following treatments: Compound (1) (15 mg/kg, dissolved in 50% 2-hydroxypropyl-β-cyclodextrin in saline), vehicle (cyclodextrine), or yohimbine (2 mg/kg dissolved in water). All treatments were administered i.p. in a 1 ml/kg volume, 1 h before tests.
(§2) For all the sexual behaviour tests, the males were placed in an observation arena (50-60 cm diameter), starting 5 hours into the dark cycle and observed under red illumination. Three to 4 minutes after placing the male in the arena, a receptive female (ovariectomised, bearing a 7 mm Silastic implant of oestradiol benzoate) was introduced to the arena and the following parameters noted: Mount Latency: time (in seconds) taken between introduction of female and first mount. A maximum time of 15 minutes (900 seconds) was allowed, and the test terminated if no mounts were recorded within that time (FIG. 16), Ejaculation Latency: time (in seconds) taken from first intromission to ejaculation. A maximum time of 30 minutes (1800 seconds) was given, and the test terminated if ejaculation was not achieved in that time (FIG. 17), Percentage of males achieving ejaculation within 30 minutes was calculated (FIG. 18).
A one-way ANOVA followed by Dunnett's t test was used to compare the fluoxetine+vehicle group and other groups for mount and ejaculatory latencies. Percentage of animals ejaculating was analysed using a Chi-square test followed by Fisher's test. (*: P<0.05, **: P<0.01, ***: P<0.001; n=15-19).

In the next data set the target is T2, human GRP receptor (BB2) (Homo sapiens, UniProt P30550).
T2 construct: expressed in transfected cells; membranes prepared from the cells
Briefly: BB2 binding assay ([125I][Tyr4]bombesin displacement, CHO-K1 membranes). To be noted: Table 1, human GRP receptor binding affinity; Ki from IC50 by Cheng-Prusoff; read-out: GRP Kj. A digest of the protocol:
as §1

The subject of data set [2] is sexual behaviour of normal male rats. The experiment in a line: Sexual behaviour of normal (sexually vigorous) male rats. To be noted: Compound (1) 15 mg/kg or Fluoxetine 20 mg/kg i.p. 1 h before test. Type of data set: in vivo, rat. The procedure:
The potentially stimulatory effect of Compound (1) on male sexual behaviour has been tested on sexually vigorous rats. Sprague Dawley male rats (Charles River, UK) were kept, 4 rats per cage, in a reversed lighting regime (12:12 hours, lights off at 5.00 h), with free access to food and water. The rats were pre-selected by being presented with a receptive female at 4 days intervals, i.e. every third day (having 2 clear days between presentations) until completing 6-7 […] of baseline determination. The animals showing consistently vigorous behaviour (ejaculatory latencies <300s) were chosen for further experiments (n—24). Animals were randomised into three groups. All animals received all three treatments following a latin-square design. Treatments were administered once a week, with a baseline test in between treatments (4 days intervals between baseline and test day). Treatments were Compound (1) (15 mg/kg, dissolved in 50% 2-hydroxypropyl-β-cyclodextrin in saline), vehicle, or Fluoxetine (20 mg/kg dissolved in 100% DMSO). All treatments were administered i.p. in a 1 ml/kg volume, 1 h before tests.
as §2, with “11), Intromission Latency: time (in seconds) taken between introduction of female and first intromission (FIG. 12), Number of Mounts: to reach ejaculation. When ejaculation was not reached, the number of mounts was not analyzed, Number of Intromissions: to reach ejaculation. When ejaculation was not reached, the number of intromissions was not analyzed (FIG. 13 is number of mounts+intromissions),” for “16),”, “14), and Refractory Period: time (in seconds) taken from ejaculation to the first mount” for “17), Percentage”, “the next series of sexual activity. In those animals reaching” for “males achieving”, “the test” for “within 30 minutes”, “terminated at the end of the refractory period, as indicated by the first mount of the next sexual cycle” for “calculated”, “15).” for “18).”
A one-way ANOVA followed by Dunnett's t test was used to compare treated vs vehicle groups each day of testing, for all the sexual behaviour parameters. (*P<0.05, **P<0.01; n=15-16).

[3] abbreviates: fluoxetine 20 mg/kg i.p. for 3 consecutive days, vs vehicle+vehicle group.

T1 sequence (P28336 whole entry): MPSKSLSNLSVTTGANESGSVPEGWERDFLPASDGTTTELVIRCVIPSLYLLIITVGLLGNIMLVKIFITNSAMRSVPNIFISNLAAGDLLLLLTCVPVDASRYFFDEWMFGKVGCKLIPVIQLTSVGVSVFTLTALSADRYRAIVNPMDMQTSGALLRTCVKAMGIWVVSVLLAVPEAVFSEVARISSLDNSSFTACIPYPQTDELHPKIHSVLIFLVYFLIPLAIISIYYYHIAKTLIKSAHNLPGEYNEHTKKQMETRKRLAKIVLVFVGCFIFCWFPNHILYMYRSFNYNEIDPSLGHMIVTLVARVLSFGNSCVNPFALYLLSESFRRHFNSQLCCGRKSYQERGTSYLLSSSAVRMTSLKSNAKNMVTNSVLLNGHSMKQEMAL
T2 sequence (P30550 whole entry): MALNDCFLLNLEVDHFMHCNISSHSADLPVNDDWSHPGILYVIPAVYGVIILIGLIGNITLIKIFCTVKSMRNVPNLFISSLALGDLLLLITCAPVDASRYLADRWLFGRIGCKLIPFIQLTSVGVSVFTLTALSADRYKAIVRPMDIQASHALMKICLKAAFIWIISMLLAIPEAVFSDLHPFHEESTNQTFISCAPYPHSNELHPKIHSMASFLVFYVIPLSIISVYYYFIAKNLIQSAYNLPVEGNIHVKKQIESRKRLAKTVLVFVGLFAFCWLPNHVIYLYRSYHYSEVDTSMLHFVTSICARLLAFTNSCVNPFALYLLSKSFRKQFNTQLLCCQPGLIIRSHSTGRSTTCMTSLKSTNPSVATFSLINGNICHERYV

In the case of `C[C@@](Cc1c[nH]c2ccccc12)(Nc1cncc2ccccc12)C(=O)NCC1(c2ccccn2)CCCCC1` [Example 19, (S)-3-(1H-Indol-3-yl)-2-(isoquinolin-4-ylamino)-2-methyl-N-(1-pyridin-2-yl-cyclohexylmethyl)-propionamide], the melting point (in general, the temperature, or range, at which the solid turns liquid) lay in the range of 98 to 101 °C. The Ki on human NMB receptor (BB1) is 1250 nM.
With `C[C@@](Cc1c[nH]c2ccccc12)(Nc1ccncc1)C(=O)NCC1(c2ccccn2)CCCCC1` [Example 18, (S)-3-(1H-Indol-3-yl)-2-methyl-2-(pyridin-4-ylamino)-N-(1-pyridin-2-yl-cyclohexylmethyl)-propionamide], the melting point lay in the range of 180 to 195 °C. For the same molecule, the Ki at human NMB receptor (BB1) came out at 303 nM.
Molecule `C[C@@](Cc1c[nH]c2ccccc12)(NCc1ccc([N+](=O)[O-])cc1)C(=O)NCC1(c2ccccn2)CCCCC1` [Example 27, (S)-3-(1H-Indol-3-yl)-2-methyl-2-(4-nitro-benzylamino)-N-(1-pyridin-2-yl-cyclohexylmethyl)-propionamide] showed a melting point of 58 to 60 °C. In addition, at human NMB receptor (BB1), the Ki was found to be 652 nM.
On to `COC(=O)[C@@H]1[C@H]2C[C@H]3c4[nH]c5ccccc5c4CCN3C[C@@H]2CC[C@@H]1O` [Yohimbine, yohimbine], for which the “Mount Latency” value in data set [1] (fluoxetine-pretreated rats, Compound (1) 15 mg/kg or yohimbine 2 mg/kg i.p. 1 h before test, vs fluoxetine+vehicle (FIG. 16)) is “followed a similar trend, although this did not reach significance”. In addition, the “Ejaculation Latency” value in data set [1] (fluoxetine-pretreated rats, Compound (1) 15 mg/kg or yohimbine 2 mg/kg i.p. 1 h before test, vs fluoxetine+vehicle (FIG. 17)) is given as “followed a similar trend, although this did not reach significance”. Besides, the “percentage of animals ejaculating” value in data set [1] (fluoxetine-pretreated rats, Compound (1) 15 mg/kg or yohimbine 2 mg/kg i.p. 1 h before test, vs fluoxetine+vehicle (FIG. 18)) is on record as “followed a similar trend, although this did not reach significance”.
For `C[C@@](Cc1c[nH]c2ccccc12)(Nc1cncnc1)C(=O)NCC1(c2ccccn2)CCCCC1` [Example 20, (S)-3-(1H-Indol-3-yl)-2-methyl-N-(1-pyridin-2-yl-cyclohexylmethyl)-2-(pyrimidin-5-ylamino)-propionamide], the melting point fell in the range of 95 to 98 °C. In addition, the Ki at human NMB receptor (BB1) amounted to 3160 nM.
`Cc1cccc(N[C@@](C)(Cc2c[nH]c3ccccc23)C(=O)NCC2(c3ccccn3)CCCCC2)c1` [Example 22, (S)-3-(1H-Indol-3-yl)-2-methyl-N-(1-pyridin-2-yl-cyclohexylmethyl)-2-m-tolylamino-propionamide] returned a melting point of 70 to 75 °C. The Ki on human NMB receptor (BB1) came out at 653 nM.
The molecule `COc1ccc(C2(CNC(=O)[C@](C)(Cc3c[nH]c4ccccc34)Nc3nc(-c4ccc([N+](=O)[O-])cc4)cs3)CCCCC2)nc1` [Example 16] came in with a melting point of 110 to 114 °C. In addition, the Ki at human NMB receptor (BB1) is 15 nM.
As for `CCc1coc(N[C@@](C)(Cc2c[nH]c3ccccc23)C(=O)NCC2(c3ccc(OC)cn3)CCCCC2)n1` [Example 15, (S)-2-(4-Ethyl-oxazol-2-ylamino)-3-(1H-indol-3-yl)-N-[1-(5-methoxy-pyridin-2-yl)-cyclohexylmethyl]-2-methyl-propionamide], the melting point was 60 to 65 °C. For the same molecule, the Ki on human GRP receptor (BB2) is 1770 nM. On human NMB receptor (BB1), the Ki came to 213 nM.
With `CNCCC(Oc1ccc(C(F)(F)F)cc1)c1ccccc1` (centres unmarked) [Fluoxetine, reference compound], in data set [1] (setting [3]), the “Ejaculation Latency” value is recorded as “significantly increased”, the “Mount Latency” value is listed as “significantly increased” and the “number of animals ejaculating” value was “significantly lower”. Moreover, the “Mount Latency” value in data set [2] (vs vehicle (FIG. 11)) was “significantly increased”. Also, the “Intromission Latency” value in data set [2] (vs vehicle (FIG. 12)) is reported as “significantly increased”. In addition, the “number of mounts and intromissions required to achieve ejaculation” value in data set [2] (vs vehicle (FIG. 13)) is reported as “No changes”. In data set [2] (vs vehicle (FIG. 14)), the “Ejaculation Latency” value is on record as “also increased”. In addition, the “Refractory Period” value in data set [2] (vs vehicle (FIG. 15)) is listed as “also increased”.
In the case of `COc1ccc(C2(CNC(=O)[C@](C)(Cc3c[nH]c4ccccc34)Nc3nc(-c4ccc(C#N)cc4)co3)CCCCC2)nc1` [Example 13, (S)-2-[4-(4-Cyano-phenyl)-oxazol-2-ylamino]-3-(1H-indol-3-yl)-N-[1-(5-methoxy-pyridin-2-yl)-cyclohexylmethyl]-2-methyl-propionamide], the melting point lay within 105 to 108 °C. Besides, the Ki at human GRP receptor (BB2) was 1380 nM. The Ki on human NMB receptor (BB1) worked out at 19 nM.
Molecule `C[C@@](Cc1c[nH]c2ccccc12)(Nc1nc2ccccc2o1)C(=O)NCC1(c2ccccn2)CCCCC1` [Example 17, (S)-2-(Benzooxazol-2-ylamino)-3-(1H-indol-3-yl)-2-methyl-N-(1-pyridin-2-yl-cyclohexylmethyl)-propionamide] gave a melting point of 198 to 200 °C. The Ki at human NMB receptor (BB1) is 2080 nM.
`COCC1(CNC(=O)[C@](C)(Cc2c[nH]c3ccccc23)Nc2nc(-c3ccc([N+](=O)[O-])cc3)co2)CCCCC1` [Example 10, (S)-3-(1H-Indol-3-yl)-N-(1-methoxymethyl-cyclohexylmethyl)-2-methyl-2-[4-(4-nitro-phenyl)-oxazol-2-ylamino]-propionamide]: the melting point was in the range of 189 to 192 °C. Moreover, the Ki on human NMB receptor (BB1) stood at 469 nM.
The like results for `O=C(NCC1(c2ccccn2)CCCCC1)[C@@H](Cc1ccccc1)Nc1ccccc1` [Example 24, (R)-3-Phenyl-2-phenylamino-N-[1 1-pyridin-2-yl-cyclohexylmethyl)-propionamide] were, in that order, 113 to 115 °C and 137 nM.
With `COc1ccc(C2(CNC(=O)[C@](C)(Cc3c[nH]c4ccccc34)Nc3nc(-c4ccccc4)co3)CCCCC2)nc1` [Example 14, (S)-3-(1H-Indol-3-yl)-N-[1-(5-methoxy-pyridin-2-yl)-cyclohexylmethyl]-2-methyl-2-(4-phenyl-oxazol-2-ylamino)-propionamide], the melting point fell in the range of 85 to 90 °C. For the same molecule, the Ki on human GRP receptor (BB2) was found to be 1190 nM. Besides, the Ki on human NMB receptor (BB1) was found to be 106 nM.
